Results taken from patent US7759391B2, “Pharmaceutical composition comprising thiacremonone for treating colon cancer” (Chungbuk National University Industry Academic Cooperation …, priority 2007, dated 2010).
Converted amounts (≈) assume the structure as drawn.

What was measured:
[1] = system: SW620 colon cancer cells; experiment: Cell viability / growth, CCK-8 assay, SW620; type: cell-based; conditions: Homo sapiens, SW-620, read-out: IC50 of cell growth inhibition, heading: IC50 of cell growth inhibition, SW620, 48 h
Experimental: (§1) Panel b of FIGS. 2A-2C: Cell viability was determined by CCK-8 assay as described in Materials and Methods. SW620 (FIG. 2A) and HCT116 (FIG. 2B) colon cancer cells as well as normal cells (Caco-2) (FIG. 2C) were treated with various doses (30-150 μg/ml) of thiacremonone for different times (12-48 h). Values are each the mean±S.D. of three experiments, each performed in triplicate.
(§2) SW620 and HCT116 colon cancer cells were plated at a density of 10^4 cells/well in 96-well plates per 100 μl medium. To determine the appropriate concentration that is not cytotoxic to the cells, the cytotoxic effect was evaluated in cells cultured for 12, 24, 36, and 48 h using the cell counting kit-8 assay kit according to the manufacturer's instructions (Dojindo, Gaithersburg, Md., USA). Briefly, 10 μl of the CCK-8 solution was added to cells cultured for the designated time. The plates were incubated for 1-4 h in the incubator. The resulting color was assayed at […] using a microplate absorbance reader (Sunrise, Tecan, Switzerland). Each assay was carried out in triplicate.

[2] = system: HCT116 colon cancer cells; experiment: Western blot of apoptosis regulatory proteins, HCT116; type: cell-based, human; conditions: HCT116, 30-150 μg/ml, 24 h
Experimental: (§3) The cells were treated with different concentrations (30-150 μg/ml) of thiacremonone at 37° C. for 24 h. Equal amounts of total proteins (50 μg/lane) were subjected to 12% SDS-PAGE. Expressions of Bax, cleaved caspase-3, cleaved PARP, Bcl-2, cIAP1/2, XIAP, and β-actin were detected by western blotting using specific antibodies. β-Actin protein was used an internal control. Panel a: SW620 colon cancer cells. Panel b: HCT116 colon cancer cells. Each band is representative of three independent experiments.
(§4) Cultured cells were washed twice with 1×PBS, followed by the addition of 1 ml of PBS, and the cells were scraped into a cold Eppendorf tube. Cells were homogenized with lysis buffer [50 mM Tris pH 8.0, 150 mM NaCl, 0.02% sodium azide, 0.2% SDS, 1 mM PMFS, 10 μl/ml aprotinin, 1% igapel 630 (Sigma-Aldrich, St. Louis, Mo., USA), 10 mM NaF, 0.5 mM EDTA, 0.1 mM EGTA, and 0.5% sodium deoxycholate] and centrifuged at 23,000×g for 15 min. The protein concentration was measured by the Bradford method (Bio-Rad Protein Assay; Bio-Rad Laboratories Inc., Hercules, Calif., USA), and equal amount of proteins (50 μg) were separated on a SDS/12%-polyacrylamide gel and then transferred to a Hybond ECL nitrocellulose membrane (Amersham Pharmacia Biotech Inc., Piscataway, N.J., USA). Blots were blocked for 2 h at room temperature with 5% (w/v) non-fat dried milk in Tris-buffered saline [10 mM Tris (pH 8.0) and 150 mM NaCl] solution containing 0.05% tween-20. […] Immunoreactive proteins were detected with the ECL Western blotting detection system. The relative density of the protein bands was scanned by densitometry using MyImage (SLB) and quantified by Labworks 4.0 software (UVP Inc.).

[3] = target: T1, NF-κB (Homo sapiens, UniProt Q04206); experiment: Gel electromobility shift assay (EMSA), NF-κB DNA binding activity, HCT116; type: cell-based; conditions: HCT116, 30-150 μg/ml, 1 h
T1 construct: endogenous in cells; host or cells: SW620 and HCT116 human colon cancer cells (ATCC)
T1 sequence (Q04206 whole entry): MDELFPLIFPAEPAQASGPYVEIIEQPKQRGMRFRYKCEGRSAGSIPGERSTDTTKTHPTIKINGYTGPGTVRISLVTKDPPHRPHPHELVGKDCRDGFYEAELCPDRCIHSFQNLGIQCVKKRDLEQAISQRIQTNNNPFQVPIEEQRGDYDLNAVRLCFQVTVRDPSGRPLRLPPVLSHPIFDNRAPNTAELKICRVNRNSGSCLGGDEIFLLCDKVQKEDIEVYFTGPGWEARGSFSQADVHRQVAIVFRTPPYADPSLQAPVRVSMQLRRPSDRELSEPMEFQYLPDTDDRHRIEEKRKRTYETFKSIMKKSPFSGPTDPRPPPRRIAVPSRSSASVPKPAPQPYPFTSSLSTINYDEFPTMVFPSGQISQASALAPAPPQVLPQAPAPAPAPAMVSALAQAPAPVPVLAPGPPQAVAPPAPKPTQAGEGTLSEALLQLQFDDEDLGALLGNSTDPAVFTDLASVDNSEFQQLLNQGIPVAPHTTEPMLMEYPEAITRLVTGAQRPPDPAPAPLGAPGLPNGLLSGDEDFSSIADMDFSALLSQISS
T1 sequence (P19838 1-433 partner limits assumed): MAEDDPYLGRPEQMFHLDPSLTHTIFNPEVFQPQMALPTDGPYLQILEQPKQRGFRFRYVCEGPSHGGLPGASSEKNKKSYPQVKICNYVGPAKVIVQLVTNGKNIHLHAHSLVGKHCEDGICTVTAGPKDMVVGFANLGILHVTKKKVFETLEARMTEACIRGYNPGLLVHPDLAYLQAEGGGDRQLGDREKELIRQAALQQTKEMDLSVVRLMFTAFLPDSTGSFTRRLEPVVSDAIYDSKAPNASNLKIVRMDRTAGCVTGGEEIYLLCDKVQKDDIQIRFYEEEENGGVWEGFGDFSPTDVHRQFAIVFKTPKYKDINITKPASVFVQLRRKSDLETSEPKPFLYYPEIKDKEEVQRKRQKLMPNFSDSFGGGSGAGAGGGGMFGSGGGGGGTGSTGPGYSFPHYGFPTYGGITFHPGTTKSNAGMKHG
Experimental: (§5) FIG. 1A: Nuclear extract from SW620 (panel a) and HCT116 (panel b) colon cancer cells treated with thiacremonone (30-150 μg/ml) for 1 h was incubated in binding reactions of ^32P-end-labeled oligonucleotide containing the κB sequence. The activation of NF-κB was investigated using EMSA as described in Materials and Methods. For competition assays, nuclear extracts from cells treated with TNF-α were incubated for 1 h before EMSA with unlabled NF-κB oligonucleotide or labeled NF-κB oligonucleotide. For supershift assays, nuclear extracts from cells treated with TNF-α were incubated for 1 h before EMSA with specific antibodies against the p50 and p65 NF-κB isoforms. SS indicates supershift assay using p65 antibody (panel c). Quantification of band intensities from three independent experimental results performed by densitometry (Imaging System) and the value under each band indicated as fold difference from the untreated control group.
(§6) Gel shift assay was performed according to the manufacturer's recommendations (Promega, Madison, Wis., USA). […] The relative density of the DNA-protein binding bands was scanned by densitometry using MyImage (SLB, Seoul, Korea), and quantified by Labworks 4.0 software (UVP Inc., Upland, Calif., USA).

[4] = system: NF-κB; experiment: NF-κB luciferase reporter assay (pNF-κB-Luc), HCT116; type: cell-based, human; conditions: HCT116, 30-150 μg/ml, 8 h
Experimental: (§7) FIG. 1B: Colon cancer cells were transfected with pNF-κB-Luc plasmid (5×NF-κB) and then activated with TNF-α (150 U/ml) alone or TNF-α plus different concentrations (30-150 μg/ml) of thiacremonone at 37° C. in both SW620 (panel a and b) and HCT116 (panel c and d) colon cancer cells, and then the luciferase activity was determined. All values represent mean±S.D. of three independent experiments performed in triplicate. RLU is relative to luciferase activity in transfected unstimulated cells. *P<0.05 indicates statistically significant differences from the TNF-α-treated group.
(§8) SW620 and HCT116 human colon cells (2.5×10^5 cells/cm^2) were plated in 24-well plates and transiently transfected with pNF-κB-Luc plasmid (5×NF-κB; Stratagene, La Jolla, Calif., USA) using a mixture of plasmid and lipofectAMINE PLUS in OPTI-MEN according to manufacturer's specifications (Invitrogen, Carlsbad, Calif., USA). The transfected cells were treated with tumor necrosis factor-α (TNF-α) (10 ng/ml) or TPA (50 nM) and different concentrations (30-150 μg/ml) of thiacremonone for 8 h. Luciferase activity was measured by using the luciferase assay kit (Promega, Madison, Wis., USA) according to the manufacturer's instructions (WinGlow, Bad Wildbad, Germany).

[5] = target: T1, NF-κB; experiment: Gel electromobility shift assay (EMSA), NF-κB DNA binding activity, SW620; type: cell-based; conditions: SW620, 30-150 μg/ml, 1 h
Experimental: as §5, §6

[6] = system: NF-κB; experiment: NF-κB luciferase reporter assay (pNF-κB-Luc), SW620; type: cell-based, human; conditions: SW620, 30-150 μg/ml, 8 h
Experimental: as §7, §8

[7] = system: HCT116 colon cancer cells; experiment: Apoptosis detection, DAPI/TUNEL staining, HCT116; type: cell-based, human; conditions: 24 h
Experimental: (§9) FIG. 3B: The apoptotic index was determined as the DAPI-stained TUNEL-positive cell number counted. Values are mean±S.E.M. of three experiments, each performed in triplicate. *P<0.05 indicates statistically significant differences from the untreated group.
(§10) Apoptosis assay was first performed by using 4,6-diamino-2-phenylindole (DAPI) staining. SW620 and HCT116 human colon cancer cells were cultured in the absence or presence of increasing concentrations of thiacremonone, and induction of apoptotic cell death was evaluated after 24 h. Apoptotic cells were determined by the morphological changes after DAPI staining under fluorescence microscopic observation (DAS microscope, 100× or 200×: Leica Microsystems, Inc., Deefield, Ill., USA). Apoptosis was also evaluated by TUNEL staining assay. In short, cells were cultured on 8-chamber slides. After treatment with thiacremonone (30-150 μg/ml) for 24 h, the cells were washed twice with PBS and fixed by incubation in 4% paraformaldehyde in PBS for 1 h at room temperature. TUNEL assays were performed by using the in situ Cell Death Detection Kit (Roche Diagonostics GmbH, Mannheim, Germany) according to manufacturer's instructions. Total number of cells in a given area was determined by using DAPI and TUNEL staining. The apoptotic index was determined as the number of DAPIstained TUNEL-positive cells divided by the total cell number counted ×100.

[8] = system: SW620 colon cancer cells; experiment: Western blot of apoptosis regulatory proteins, SW620; type: cell-based, human; conditions: SW620, 30-150 μg/ml, 24 h
Experimental: as §3, §4

[9] = system: SW620 colon cancer cells; experiment: Apoptosis detection, DAPI/TUNEL staining, SW620; type: cell-based, human; conditions: 24 h
Experimental: as §9, §10

[10] = system: SW620 xenograft; experiment: SW620 colon xenograft in nude mice; type: in vivo; conditions: for tumor volume, % of sham control group: day 31
From the text: To elucidate the anticancer effect of thiacremonone in vivo, the tumor growth on colon xenograft bearing nude mice following thiacremonone treatments were investigated. In SW620 xenograft studies, thiacremonone was administrated intraperitoneally twice per week for 4 weeks to mice with tumors ranging from 100 to 300 mm3 of tumor volume. The mice were weighted twice per week. The change of body weights between saline and thiacremonone-administrated mice (n=10) was not different during the experiment.
FIG. 5 represents the relative tumor growth delay measured after treatment of thiacremonone (240 and 360 mg/kg for four weeks, n=10) in comparison with the sham control group (saline).

[11] = system: normal colon Caco-2 cells; experiment: Cell viability, CCK-8 assay, normal cells; type: cell-based; conditions: Caco-2, 30-150 μg/ml, 12-48 h
Experimental: as §1, §2

[12] = system: HCT116 colon cancer cells; experiment: Cell viability / growth, CCK-8 assay, HCT116; type: cell-based; conditions: Homo sapiens, HCT-116, HCT116, 48 h, read-out: IC50 of cell growth inhibition
Experimental: as §1, §2

- IC50 [1]: 105 µg/mL (≈ 655 µM)
- change of body weights versus saline ([10]; intraperitoneally twice per week for 4 weeks, nude mice): not different
- IC50 [12]: 130 µg/mL (≈ 812 µM)
SMILES: CC1=C(O)C(=O)C(C)(O)S1 (centres unmarked) [thiacremonone, 2,4-dihydroxy-2,5-dimethyl-thiophene-3-one]
- Expressions of apoptotic proteins Bax, cleaved caspases 3, cleaved PARP [2]: increased
- expressions of antiapoptotic protein Bcl-2, cIAP1/2, XIAP and cyclin D1 [2]: decreased
- iNOS and COX-2 expression [2]: inhibited the expressions dose-dependently
- DNA binding activity of NF-κB [3]: decreased DNA binding activity of NF-κB in a dose-dependent manner
- TNF-α and TPA induced NF-κB luciferase activity [4]: inhibited TNF-α and TPA induced NF-κB luciferase activity dose-dependently
- DNA binding activity of NF-κB [5]: decreased DNA binding activity of NF-κB in a dose-dependent manner
- TNF-α and TPA induced NF-κB luciferase activity [6]: inhibited TNF-α and TPA induced NF-κB luciferase activity dose-dependently
- apoptotic cell number ([7]; HCT116, 30 μg/ml): 0%
- apoptotic cell number ([7]; HCT116, 60 μg/ml): 0%
- apoptotic cell number ([7]; HCT116, 90 μg/ml): 29%
- apoptotic cell number ([7]; HCT116, 120 μg/ml): 95%
- apoptotic cell number ([7]; HCT116, 150 μg/ml): 98%
- Expressions of apoptotic proteins Bax, cleaved caspases 3, cleaved PARP [8]: increased
- expressions of antiapoptotic protein Bcl-2, cIAP1/2, XIAP and cyclin D1 [8]: decreased
- iNOS and COX-2 expression [8]: inhibited the expressions dose-dependently
- apoptotic cell number (DAPI-positive TUNEL-stained cells) ([9]; SW620, 30 μg/ml): 0%
- apoptotic cell number (DAPI-positive TUNEL-stained cells) ([9]; SW620, 60 μg/ml): 0%
- apoptotic cell number (DAPI-positive TUNEL-stained cells) ([9]; SW620, 90 μg/ml): 11%
- apoptotic cell number (DAPI-positive TUNEL-stained cells) ([9]; SW620, 120 μg/ml): 25%
- apoptotic cell number (DAPI-positive TUNEL-stained cells) ([9]; SW620, 150 μg/ml): 97%
- tumor volume, % of sham control group ([10]; 240 mg/kg intraperitoneally twice per week for 4 weeks): 92.5%
- tumor volume, % of sham control group ([10]; 360 mg/kg intraperitoneally twice per week for 4 weeks): 59.1%
- cytotoxic effect [11]: no cytotoxic effect
